Columns and labels:
Format in all cases: cell-based, human
TPC1 cells [1] = test: Flow cytometry of cell surface HLA and checkpoint ligands on TPC1 cells; details: TPC1, 100 nM, 72 hours
Method: If adherent cells, they were seeded one day before treatment.

TPC1 cells [2] = test: Mass spectrometry of eluted HLA class I presented peptides, TPC1 cells
Method: After 72 hrs, cells were harvested, washed, lysed. The lysate was run through an activated Sepharose-CNBr column coupled to the W6/32 antibody to bind HLA-A,B,C from the cell. The peptides bound by those HLAs and captured on the column were then eluted and mass spectrometry was run on those peptides.
Immunopurification affinity columns were prepared as described previously (Bassani-Sternberg et al., 2015, Mol Cell Proteomics 14(3):658-673). In brief, 40 mg of Cyanogen bromide-activated-Sepharose® 4B (Sigma-Aldrich, Cat #C9142) was activated with 1 mM hydrochloric acid (Sigma-Aldrich, Cat #320331) for 30 min. Subsequently, 0.5 mg of W6/32 antibody (BioXCell, BE0079; RRID: AB 1107730) was coupled to sepharose in presence of binding buffer (150 mM sodium chloride, 50 mM sodium bicarbonate, pH 8.3; sodium chloride: Sigma-Aldrich, Cat #S9888, sodium bicarbonate: Sigma-Aldrich, Cat #56014) for at least 2 hours at room temperature. Sepharose was blocked for 1 h with glycine (Sigma-Aldrich, Cat #410225). Columns were equilibrated with PBS for 10 min. […]. Afterwards, cells were lysed in 1 ml 1% CHAPS (Sigma-Aldrich, Cat #C3023) in PBS, supplemented with 1 tablet of protease inhibitors (cOmplete, Cat #11836145001) for 1 hour at 4° C. This lysate was spun down for 1 hour at 20,000 g at 4° C. Supernatant was run over the affinity column through peristaltic pumps at 1 ml/min overnight at 4° C. Affinity columns were washed with PBS for 15 min, run dry, and HLA complexes subsequently eluted three times with 200 μl 1% trifluoracetic acid (TFA, Sigma/Aldrich, Cat #02031). For separation of HLA ligands from their HLA complexes tC18 columns (Sep-Pak tC18 1 cc VacCartridge, 100 mg Sorbent per Cartridge, 37-55 μm Particle Size, Waters, Cat #WAT036820) were prewashed with 80% acetonitrile (ACN, Sigma-Aldrich, Cat #34998) in 0.1% TFA and equilibrated with two washes of 0.1% TFA. Samples were loaded, washed again with 0.1% TFA and eluted in 400 μl 30% ACN in 0.1% TFA. Sample volume was reduced by vacuum centrifugation for mass spectrometry analysis.
Samples were analyzed by a high resolution/high accuracy LC-MS/MS (Lumos Fusion, Thermo Fisher). Peptides were desalted using ZipTips (Sigma Millipore, Cat. #ZTC18S008) according to manufactures instructions and concentrated using vacuum centrifugation prior to being separated using direct loading onto a packedin-emitter C18 column (75 um ID/12 cm, 3 μm particles, Nikkyo Technos Co., Ltd. Japan). The gradient was delivered at 300 nl/min increasing linear from 2% Buffer B (0.1% formic acid in 80% acetonitrile)/98% Buffer A (0.1% formic acid) to 30% Buffer B/70% Buffer A, over 70 minutes. MS and MS/MS were operated at resolutions of 60,000 and 30,000, respectively. Only charge states 1, 2 and 3 were allowed. 1.6 Th was chosen as the isolation window and the collision energy was set at 30%. For MS/MS, the maximum injection time was 100 ms with an AGC of 50,000.
Mass spectrometry data was processed using Byonic software (version 2.7.84, Protein Metrics, PaloAlto, Calif.) through a custom-built computer server equipped with 4 Intel Xeon E5-4620 8-core CPUs operating at 2.2 GHz, and 512 GB physical memory (Exxact Corporation, Freemont, Calif.). Mass accuracy for MS1 was set to 10 ppm and to 20 ppm for MS2, respectively. Digestion specificity was defined as unspecific and only precursors with charges 1, 2, and 3 and up to 2 kDa were allowed. Protein FDR was disabled to allow complete assessment of potential peptide identifications. Oxidization of methionine, N-terminal acetylation, phosphorylation of serine, threonine and tyrosine were set as variable modifications for all samples. All samples were searched against the UniProt Human Reviewed Database (20,349 entries, uniprot.org, downloaded June 2017). […]

TPC1 cells [3] = test: RNA-seq of TPC1 cells after RET inhibitor treatment; details: TPC1, 72 hours
Method: Purified polyA mRNA was subsequently fragmented, and first and second strand cDNA synthesis performed using standard Illumina mRNA TruSeq library preparation protocols. Double stranded cDNA was subsequently processed for TruSeq dual-index Illumina library generation. For sequencing, pooled multiplexed libraries were run on a HiSeq 2500 machine on RAPID mode. Approximately 10 million 76 bp single-end reads were retrieved per replicate condition. Resulting RNA-Seq data was analyzed by removing adaptor sequences using Trimmomatic, aligning sequencing data to GRCh37.75(hg19) with STAR, and genome wide transcript counting using HTSeq to generate a RPKM matrix of transcript counts. This RPKM matrix was further log (log 2) transformed and normalized per gene to obtain the Z-score. Differential gene expression was analyzed by looking at fold changes between experimental conditions.

[4] = TPC1, 10 nM AST487 or 100 nM cabozantinib

## COc1cc2nccc(Oc3ccc(NC(=O)C4(C(=O)Nc5ccc(F)cc5)CC4)cc3)c2cc1OC [cabozantinib]
TPC1 cells [1]
  increase in surface HLA (pan-HLA): ~4 fold
  increase in surface HLA-A*02: 4 fold
TPC1 cells [2]; ALFSFVTAL (SEQ ID NO: 11)
  runs TEIPP peptide was found in (n = 3): 0
TPC1 cells [2]; FLGPWPAAS (SEQ ID NO: 12)
  runs TEIPP peptide was found in (n = 3): 1
TPC1 cells [2]; FLSELQYYL (SEQ ID NO: 13)
  runs TEIPP peptide was found in (n = 3): 0
TPC1 cells [2]; FLYPFLSHL (SEQ ID NO: 14)
  runs TEIPP peptide was found in (n = 3): 0
TPC1 cells [2]; ILEYLTAEV (SEQ ID NO: 15)
  runs TEIPP peptide was found in (n = 3): 0
TPC1 cells [2]; LLALAAGLAV (SEQ ID NO: 16)
  runs TEIPP peptide was found in (n = 3): 0
TPC1 cells [2]; LLLDVPTAAV (SEQ ID NO: 17)
  runs TEIPP peptide was found in (n = 3): 1
TPC1 cells [2]; LLLSAEPVPA (SEQ ID NO: 18)
  runs TEIPP peptide was found in (n = 3): 0
TPC1 cells [2]; LLWGRQLFA (SEQ ID NO: 19)
  runs TEIPP peptide was found in (n = 3): 0
TPC1 cells [2]; LSEKLERI (SEQ ID NO: 20)
  runs TEIPP peptide was found in (n = 3): 0
TPC1 cells [2]; LTLLGTLWGA (SEQ ID NO: 21)
  runs TEIPP peptide was found in (n = 3): 0
TPC1 cells [2]; SVLWLGALGL (SEQ ID NO: 22)
  runs TEIPP peptide was found in (n = 3): 0
TPC1 cells [2]; TLLGASLPA (SEQ ID NO: 23)
  runs TEIPP peptide was found in (n = 3): 0
TPC1 cells [2]; [4]
  new peptides (only peptides found in all three runs counted): 492
  unique peptides not present in the DMSO group (found in at least one run): 1642
TPC1 cells [2]; TPC1, 10 nM AST487 or 100 nM cabozantinib, three runs pooled, DMSO 4211
  unique ligands presented: 4850
TPC1 cells [2]; TPC1, three runs pooled
  increase in unique peptides vs DMSO: 15%
TPC1 cells [2]; TPC1, DMSO 195
  unique HLA ligands detected in all 3 runs: 639
TPC1 cells [2]; VIIKPLVWV (SEQ ID NO: 24)
  runs TEIPP peptide was found in (n = 3): 0
TPC1 cells [2]; VLAVFIKAV (SEQ ID NO: 25)
  runs TEIPP peptide was found in (n = 3): 0
TPC1 cells [2]; VLLDHLSLA (SEQ ID NO: 26)
  runs TEIPP peptide was found in (n = 3): 0
TPC1 cells [3]
  genes upregulated at least two-fold: 50

From patent US20210379046A1, “Methods of Treating Diseases Using Kinase Modulators” (Memorial Sloan Kettering Cancer Center, priority 2018, published 2021)
